Assay results reported in patent US9050286B2, “Use of peptidic vasopression receptor agonists” (Ferring B.V., priority 2007, dated 2015).
Bridge positions count the residues as written; N and C are the ends. Square brackets hold non-standard residues; d marks the D form. Peptide text beside a SMILES is read from it. Ala(cPent) = N[C@@H](CC1CCCC1)C(=O)O; Orn(iPr) = CC(C)NCCC[C@H](N)C(=O)O; Cha = N[C@@H](CC1CCCCC1)C(=O)O; Orn = NCCC[C@H](N)C(=O)O; Dab = NCC[C@H](N)C(=O)O; Ac4c = NC1(C(=O)O)CCC1

These molecules were tested against T1, hV1a receptor (Homo sapiens, UniProt P37288) (assay: hV1a receptor agonist transcriptional reporter (luciferase) assay in transiently transfected HEK-293 cells). Details: agonist activity; HEK-293 cells transiently transfected with hV1a receptor and calcium-responsive luciferase reporter; 5 hours exposure; geometric mean of at least three independent experiments; read-out: EC50 (median effective concentration).
T1 construct: expressed in transfected cells; host or cells: HEK-293
T1 sequence (P37288 whole entry): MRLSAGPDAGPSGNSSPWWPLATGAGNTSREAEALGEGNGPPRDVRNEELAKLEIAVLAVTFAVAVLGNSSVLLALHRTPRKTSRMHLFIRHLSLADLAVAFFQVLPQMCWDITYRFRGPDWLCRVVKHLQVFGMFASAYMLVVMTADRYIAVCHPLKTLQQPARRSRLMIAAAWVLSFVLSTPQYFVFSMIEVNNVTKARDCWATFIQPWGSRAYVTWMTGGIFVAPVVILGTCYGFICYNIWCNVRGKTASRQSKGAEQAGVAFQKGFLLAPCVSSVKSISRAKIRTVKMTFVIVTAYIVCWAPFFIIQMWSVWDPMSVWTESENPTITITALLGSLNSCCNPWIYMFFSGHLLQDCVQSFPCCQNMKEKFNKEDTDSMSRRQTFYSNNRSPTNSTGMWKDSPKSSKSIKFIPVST
Assay type: cell-based
Experimental: Agonist activity of compounds on the hV1a receptor was determined in a transcriptional reporter assay by transiently transfecting a hV1a receptor expression DNA into HEK-293 cells in concert with a reporter DNA containing intracellular calcium responsive promoter elements regulating expression of firefly luciferase. See Boss, V., Talpade, D. J., Murphy, T. J. J. Biol. Chem. 1996, May 3; 271(18), 10429-10432 for further guidance on this assay. […] Arginine-vasopressin (AVP) was used as an internal control in each experiment, and compounds were tested in at least three independent experiments.
The results of the in vitro assays are depicted in table 1 supra. The EC50 value given is the geometric mean expressed in nanomol/L (nM). Selectivity values are given as EC50 ratios.
An EC50 of 7.7 nM was found for `CC[C@H](C)[C@@H]1NC(=O)[C@H](CC2CCCC2)NC(=O)[C@@H](N)CSSC[C@@H](C(=O)N2CCC[C@H]2C(=O)N[C@@H](CCCN)C(=O)NCC(N)=O)NC(=O)[C@H](CC(N)=O)NC(=O)[C@H](CC(N)=O)NC1=O` [Compound 7] (H-C[Ala(cPent)]INNCP[Orn]G-NH2; disulfide 1-6) in this work. An EC50 of 7.93 nM was found for `CC[C@H](C)[C@@H]1NC(=O)C2(CCC2)NC(=O)[C@@H](N)CSSC[C@@H](C(=O)N2CCC[C@H]2C(=O)N[C@@H](CCCN)C(=O)NCC(N)=O)NC(=O)[C@H](CC(N)=O)NC(=O)[C@H](CC(N)=O)NC1=O` [Compound 6] (H-C[Ac4c]INNCP[Orn]G-NH2; disulfide 1-6) in this work. An EC50 of 2.28 nM was found for `CC[C@H](C)[C@@H]1NC(=O)[C@H](CC2CCCCC2)NC(=O)[C@@H](N)CSSC[C@@H](C(=O)N2CCC[C@H]2C(=O)N[C@@H](CCN)C(=O)NCC(N)=O)NC(=O)[C@H](CC(N)=O)NC(=O)[C@H](CC(N)=O)NC1=O` [Compound 12] (H-C[Cha]INNCP[Dab]G-NH2; disulfide 1-6; N-terminus assumed) in this work. An EC50 of 10.7 nM was found for `CC[C@H](C)[C@@H]1NC(=O)[C@H](CC2CCCCC2)NC(=O)[C@@H](N)CSSC[C@@H](C(=O)N2CCC[C@H]2C(=O)N[C@@H](CCCNC(C)C)C(=O)NCC(N)=O)NC(=O)[C@H](CC(N)=O)NC(=O)[C@H](CC(N)=O)NC1=O` [Compound 4, [Cha^2, Asn^4, Orn (i-Pr)^8]VT] (H-C[Cha]INNCP[Orn(iPr)]G-NH2; disulfide 1-6) in this work. An EC50 of 14.8 nM was found for `CC[C@H](C)[C@@H]1NC(=O)C2(CCC2)NC(=O)[C@@H](N)CSSC[C@@H](C(=O)N2CCC[C@H]2C(=O)N[C@@H](CCN)C(=O)NCC(N)=O)NC(=O)[C@H](CC(N)=O)NC(=O)[C@H](CC(N)=O)NC1=O` [Compound 9] (H-C[Ac4c]INNCP[Dab]G-NH2; disulfide 1-6; N-terminus assumed) in this work. An EC50 of 0.75 nM was found for `CC[C@H](C)[C@@H]1NC(=O)[C@H](CC2CCCCC2)NC(=O)[C@@H](N)CSSC[C@@H](C(=O)N2CCC[C@H]2C(=O)N[C@@H](CCCN)C(=O)NCC(N)=O)NC(=O)[C@H](CC(N)=O)NC(=O)[C@H](CC(N)=O)NC1=O` [Compound 8] (H-C[Cha]INNCP[Orn]G-NH2; disulfide 1-6) in this work.
